Source: a melting point compilation (Tetko et al.)

Compound	melting point
CC(=O)N=c1c(-c2ccccc2)cc2cc3cc(-c4ccccc4)c(=NC(C)=O)n(C(C)=O)c3cc2n1C(C)=O	238 to 240 °C
N#Cc1cccnc1Sc1ccccc1	105 to 107 °C
O=[N+]([O-])c1ccc(C=Cc2ccc([N+](=O)[O-])cc2)cc1	183 °C
[O-][N+](=Nc1cccc(O)c1)c1cccc(O)c1	183 °C
CCOc1ccc2cc(O)c(O)cc2c1	132 °C
Nc1cccc(Br)n1	90 °C
NC(=O)c1ccccc1N1CCCCC1	115 to 118 °C
O=C(O)c1ccc(-c2cccnc2)cc1	271 to 274 °C
COC(=O)C1(Br)CCC(Br)(C(=O)OC)CC1 (stereo unspecified)	148 to 150 °C
CC(=O)NS(=O)(=O)c1ccc(NC(=O)c2ccccc2C(=O)O)cc1	196 °C
CC(O)[C@@]1(O)CC[C@H]2[C@@H]3CCC4(C)C[C@H](O)CC[C@]4(C)[C@H]3CC[C@@]21C (stereo partly specified)	254 to 255 °C
CCC(C)(C)S	-104 °C
COc1ccc(Cl)cc1C#N	100 °C
CSc1n[nH]c(N)c1C(N)=O	176 °C
CC(=O)c1c(F)ccc(F)c1C(=O)O	86 °C
Cc1nc[nH]c1C=O	165 to 166 °C
COc1ccc(C=CC#N)c(Cl)c1OC	107 to 110 °C
CCN1C(=O)CC(=O)N(CC)C1=S	106 to 109 °C
Nc1nonc1N	178 to 183 °C
FC(F)(F)c1ccc(N2CCOCC2)c(CCl)c1	52 to 54 °C
O=C=Nc1ccc(-c2cccs2)cc1	65 to 66 °C
CC(C)(C)P(c1ccc2ccccc2c1-c1cccc2ccccc12)C(C)(C)C	147 to 149 °C
COc1ccc(C=C2SC(=S)N(CN3CCCCC3)C2=O)cc1	222 to 223 °C
Cc1c(C)c(C)c2c(=O)n3ccccc3cc2c1C	221 °C
CSC(S)=Nc1ccc(N)cc1	188 to 190 °C
CC(C)(C)OC(=O)NC(Cc1cccnc1)C(=O)O (stereo unspecified)	137 °C

Compound	melting point
Cc1c(CCl)cccc1[N+](=O)[O-]	42 to 47 °C
S=c1nnc(-c2ccccc2)c(Nc2ccc(Br)cc2)[nH]1	359 °C
CC1(CC(=O)O)OCCc2sccc21 (stereo unspecified)	92.5 to 93.5 °C
COC(=O)c1nccnc1N	171 °C
Nc1cc2ccccc2oc1=O	136 °C
Cc1nn(-c2ccccc2)nc1C(=O)NNS(=O)(=O)c1ccccc1	217 to 219 °C
CSc1nc2[nH]c(=S)n(-c3ccccc3)c(=O)c2n1C	268 to 270 °C
CC(O)C1(C)CCC2=C1CCC1C2CCC2(C)CC(O)CCC12C (stereo unspecified)	205 to 207 °C
COC(=O)Cn1ccnc1[N+](=O)[O-]	96 °C
CCCCCCCCOC(=O)CCCCC(=O)OCCCCCCCC	-70 °C
c1cncc(-c2nc3ccccc3[nH]2)c1	257 °C
O=C1OC(=O)C2C3C=CC(C12)C1C(=O)OC(=O)C31 (stereo unspecified)	360 °C
O=C(COc1ccc(Cl)cc1)n1c(=O)sc2ccccc21	143 °C
CCC(CC)C(N)CC(=O)O (stereo unspecified)	213 to 214 °C
Cc1cc(C)c(C=O)c(C)c1	14 °C
CC(=O)OC[C@H]1O[C@@H](OC(C)=O)[C@H](NC(=O)OCc2ccccc2)[C@@H](OC(C)=O)[C@@H]1OC(C)=O	150 °C
CCC(=O)c1ccc[nH]1	50 °C
COc1ccccc1C1(C)CCc2oc3ccc(C)cc3c2-c2oc(C)cc21 (stereo unspecified)	179 °C
O=C1C(=O)N(O)C2CCCCC2N1O (stereo unspecified)	243 to 245 °C
COc1ccc(C(C)=CC(=O)O)c(OC)c1	149 °C
CSC(C)(C)C=NO	21 °C
NC(=S)c1ccc(Oc2ccc(C(F)(F)F)cn2)cc1	175 to 178 °C
O=c1[nH]cccc1[N+](=O)[O-]	232 °C
O=C(O)c1ccccc1C(=O)c1ccc(F)cc1	140 to 141 °C
CC(C)c1cc(C(C)C)c(S(=O)(=O)Cl)c(C(C)C)c1	96 °C
CCOC(=O)C(ON=C(c1cc2ccccc2o1)c1cc2ccccc2o1)C(=O)OCC	137 to 138 °C

Compound	melting point
COc1cc(-c2n[nH]c(=S)n2/N=C/c2ccccc2O)cc(OC)c1OC	220 to 222 °C
O=C(O)c1cc(=O)[nH]c(=O)[nH]1	345 °C
COC(=O)CC1Sc2ccccc2NC1=O (stereo unspecified)	143 °C
CC(=O)SCC(C)C(=O)N1CCCC1C(=O)O (stereo unspecified)	76 to 82 °C
CCCCCCCCC=CCCCCCCCC(=O)OCCCC	-26.5 °C
CN(C(=S)Cl)c1ccc(F)cc1	92 to 94 °C
CCC1(O)CCC2(C)C(CCC3C4CCC(=O)C4(C)CCC32)C1 (stereo unspecified)	113 to 116 °C
O=C(O)c1nc2ccccc2nc1O	267 to 268 °C
O=C(O)[C@H]1[C@H](C(=O)O)[C@H]2C=C[C@@H]1C2	185 °C
COc1ccc(C(=O)C=Cc2ccc(-c3ccccc3OC)o2)cc1OC	144 to 145 °C
CCCCCCC(C=O)=Cc1ccccc1	39.2 °C
CC(=O)Nc1ccc(N(Nc2ccccc2)C(C)=O)cc1	199 °C
O=C(CS(=O)C(c1ccccc1)c1ccccc1)NO (stereo unspecified)	159 °C
NCCc1cccc(CCO)c1	264 °C
O=C(O)c1cncnc1	259 to 261 °C
N#Cc1sc2nc(-c3ccccc3)cc(C(F)(F)F)c2c1N	236 to 238 °C
COc1ccc2cc([N+](=O)[O-])ccc2c1	134 °C
Cc1cc(C)n(N=Cc2ccc([N+](=O)[O-])cc2)c(=O)c1C#N	260 to 261 °C
Clc1ccc(Br)s1	-20 °C
Ic1ccc2c(c1)Oc1ccccc1O2	95 °C
CC(C)OC(=O)COc1cc(Cl)c(Cl)cc1Cl	45 °C
COc1cc(C=O)cc(OC)c1OC	75 °C
Cn1c(/C(C#N)=N/Nc2cccc(Cl)c2)nc2ccccc21	165 °C
CC(=O)N(C(C)=O)c1ccc(N=Nc2ccccc2C)cc1C	75 °C
CC(C)(C)NC(=S)NC(C)(C)C	168 to 171 °C
CCOC(=O)c1cccc(C(=O)OCC)c1	11.5 °C

Compound	melting point
CCOc1ccc(-c2nnc3n2NC(c2ccccc2O)S3)cc1 (stereo unspecified)	177 °C
CCCCCC(C)CCC (stereo unspecified)	-99 °C
OCc1csc(-c2cccs2)n1	87 to 90 °C
Cc1cc(C)c(C2(C)CC(C(=NNC(N)=S)c3cc4ccccc4o3)C2)c(C)c1 (stereo unspecified)	258 to 259 °C
CCNc1nc(NC(C)C)nc(SC)n1	88 °C
COP(=S)(OC)SCC(=O)N(C)C=O	25.5 °C
COC(=O)C1CCC(C)(C(O)(c2ccccc2)c2ccccc2)OC1(C)C (stereo unspecified)	91 °C
O=c1c2ccccc2cc2ccc3ccccc3n12	125 °C
COC(=O)c1scc(C#N)c1N	149 to 150 °C
C=C=O	-151 °C
C#CC	-103 °C
O=C(OC1OC(COCc2ccccc2)C(OCc2ccccc2)C1OCc1ccccc1)c1ccc([N+](=O)[O-])cc1 (stereo unspecified)	92 to 94 °C
NC(=O)c1ccc(Cl)nc1	215 °C
CN1CCOc2cc(C(=O)O)cnc21	232 to 280 °C
Oc1c(Br)ccc2cccnc12	140 °C
O=C(OCC(=O)N1CCCC1)c1ccccc1	58 °C
CC12C=C(C=O)C(=O)C=C1CCC1C2C(O)CC2(C)C1CCC2(C)O (stereo unspecified)	210 °C
Cc1ccc(N2C(=O)C=CC2=O)cc1Cl	143 °C
O=C1OC2(c3ccccc31)c1cc(Br)c(O)c(Br)c1Oc1c2cc(Br)c(O)c1Br	295 °C
COC(=O)c1sc(-c2ccc(C(C)(C)C)cc2)cc1N	156 to 157 °C
CCCCCCCCCCCC(=O)Oc1ccccc1	24.5 °C
Cn1cnc(C(=O)O)c1	245 °C
O=C1C(c2ccccn2)=[N+]([O-])c2ccccc21	182 °C
CC1NC(=O)NC1CCCCCC(=O)O (stereo unspecified)	157 °C
CC(C)(C)P(C(C)(C)C)C(C)(C)C	30 °C
CSc1nc2[nH]c(=S)[nH]c(=O)c2n1C	289 to 290 °C

Compound	melting point
OC(c1ccc(F)cc1)(c1cncnc1)c1ccccc1Cl (stereo unspecified)	126 °C
CC(=O)c1cc(Cl)ccc1Cl	12 °C
O=C(O)COc1cccc2ccccc12	196 °C
CC(=O)O[C@H](c1ccccc1)C(O)(c1ccccc1)c1ccccc1	248 to 252 °C
CC(=O)C=Cc1ccc(C=CC(C)=O)cc1	163 °C
COC(=O)c1cccc([N+](=O)[O-])c1O	131 °C
O=C(CCCN1CCC(O)(c2ccc(Cl)cc2)CC1)c1ccc(F)cc1	148 °C
N#Cc1ccccc1CCl	61 °C
O=C1NCCN1c1ncc([N+](=O)[O-])s1	261 °C
CCCCCCCCCCCCCCCC(=O)OC(=O)CCCCCCCCCCCCCCC	64 °C
NC(=O)c1sccc1N	120 to 122 °C
COc1cc(-c2nnc3n2N=C(c2ccccc2)CS3)cc(OC)c1OC	197 °C
N#CCc1cccc(I)c1	34 °C
O=C(CC(=O)C(F)(F)F)c1ccccc1	39 °C
CC1(C)CC(=O)C2=C(C1)Nc1c(ccc3ccccc13)C2c1ccc(F)cc1 (stereo unspecified)	279 °C
O=C1CCC/C1=C1\C(=O)Nc2ccccc21	267 °C
CC12CCC(C(=CNC(N)=O)C1=O)C2(C)C (stereo unspecified)	197 °C
Cn1ccc2cc(S(=O)(=O)Cl)ccc21	79 to 80 °C
O=C(OCCc1ccc(CCOC(=O)c2ccc([N+](=O)[O-])cc2)cc1)c1ccc([N+](=O)[O-])cc1	173 °C
Nc1c(CN2CCCCC2)c(=O)oc2ccccc12	190 °C
Cc1c2ccccc2c(C)c2c1ccc1ccccc12	122 °C
Cc1ccc(Nc2ccc(Nc3ccc(C)cc3)c3c2C(=O)c2ccccc2C3=O)cc1	218 °C
